Assay results as given in article PMC10673995, “Discovery of a novel cardiac-specific myosin modulator using artificial intelligence-based virtual screening” (Nature Communications, 2023).
Where “and” joins values, the source holds several entries; their conditions need not be identical. Identical values can stand only once.

How the values were obtained:
[1] = molecular target: T1, synthetic thick filaments formed from purified full-length bovine β-cardiac myosin (Bos taurus, UniProt Q9BE39); assay: mant-ATP chase single nucleotide turnover, synthetic thick filaments; format: biochemical; conditions: for Representative Traces (mant-ATP chase, fluorescence signal over time): Figure 3b
T1 construct: diluting full-length bovine cardiac myosin stock into assay buffer; from tissue; host or cells: bovine cardiac muscle (the text says isolated/purified and describes no preparation)
T1 sequence (Q9BE39 whole entry): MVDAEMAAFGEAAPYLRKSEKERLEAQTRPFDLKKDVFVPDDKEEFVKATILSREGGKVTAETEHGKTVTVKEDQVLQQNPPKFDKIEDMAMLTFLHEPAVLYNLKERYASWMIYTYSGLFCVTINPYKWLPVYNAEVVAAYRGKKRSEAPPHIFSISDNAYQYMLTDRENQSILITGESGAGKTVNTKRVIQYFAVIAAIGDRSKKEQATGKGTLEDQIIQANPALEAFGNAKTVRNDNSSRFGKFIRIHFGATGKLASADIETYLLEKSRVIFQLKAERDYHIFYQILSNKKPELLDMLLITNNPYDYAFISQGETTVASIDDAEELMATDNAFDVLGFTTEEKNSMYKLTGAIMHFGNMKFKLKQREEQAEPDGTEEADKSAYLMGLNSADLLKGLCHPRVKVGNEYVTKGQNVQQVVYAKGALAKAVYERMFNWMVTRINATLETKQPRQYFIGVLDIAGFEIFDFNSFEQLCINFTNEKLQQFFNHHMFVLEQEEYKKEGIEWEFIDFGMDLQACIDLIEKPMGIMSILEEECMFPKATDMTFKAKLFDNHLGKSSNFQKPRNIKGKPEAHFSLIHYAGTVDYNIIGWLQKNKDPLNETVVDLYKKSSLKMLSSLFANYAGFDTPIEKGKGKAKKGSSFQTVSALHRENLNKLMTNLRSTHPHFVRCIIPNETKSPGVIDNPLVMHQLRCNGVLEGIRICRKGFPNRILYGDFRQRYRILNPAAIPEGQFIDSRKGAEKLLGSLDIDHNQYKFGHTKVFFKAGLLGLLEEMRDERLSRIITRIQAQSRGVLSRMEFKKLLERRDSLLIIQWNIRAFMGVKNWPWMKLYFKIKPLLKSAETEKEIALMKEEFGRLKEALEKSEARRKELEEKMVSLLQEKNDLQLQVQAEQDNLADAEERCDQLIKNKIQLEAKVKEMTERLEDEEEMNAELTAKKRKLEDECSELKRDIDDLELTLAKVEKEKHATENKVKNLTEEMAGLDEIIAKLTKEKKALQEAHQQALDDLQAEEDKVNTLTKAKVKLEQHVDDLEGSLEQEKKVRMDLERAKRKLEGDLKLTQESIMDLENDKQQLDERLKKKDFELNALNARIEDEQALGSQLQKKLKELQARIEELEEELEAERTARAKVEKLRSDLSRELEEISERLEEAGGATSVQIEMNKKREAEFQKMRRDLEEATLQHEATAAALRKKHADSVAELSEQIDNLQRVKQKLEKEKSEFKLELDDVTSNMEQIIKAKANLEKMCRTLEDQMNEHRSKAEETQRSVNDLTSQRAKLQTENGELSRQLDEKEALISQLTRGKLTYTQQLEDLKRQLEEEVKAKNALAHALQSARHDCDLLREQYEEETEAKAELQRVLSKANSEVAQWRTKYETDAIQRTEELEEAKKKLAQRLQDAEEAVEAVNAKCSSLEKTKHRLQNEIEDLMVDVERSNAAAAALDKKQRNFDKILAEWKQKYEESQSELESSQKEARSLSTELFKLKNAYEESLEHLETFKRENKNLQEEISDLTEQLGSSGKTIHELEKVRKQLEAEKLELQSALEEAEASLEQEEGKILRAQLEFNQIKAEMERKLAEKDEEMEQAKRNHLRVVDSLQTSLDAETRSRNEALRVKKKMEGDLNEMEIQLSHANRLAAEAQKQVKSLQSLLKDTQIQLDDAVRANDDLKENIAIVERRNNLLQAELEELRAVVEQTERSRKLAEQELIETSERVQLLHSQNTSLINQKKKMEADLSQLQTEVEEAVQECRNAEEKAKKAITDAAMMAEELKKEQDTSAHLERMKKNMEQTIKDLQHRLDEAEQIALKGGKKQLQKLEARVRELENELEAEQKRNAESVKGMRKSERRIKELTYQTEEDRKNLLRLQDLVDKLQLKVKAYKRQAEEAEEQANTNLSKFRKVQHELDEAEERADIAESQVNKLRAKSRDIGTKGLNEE
T1 sequence (P85100 whole entry partner): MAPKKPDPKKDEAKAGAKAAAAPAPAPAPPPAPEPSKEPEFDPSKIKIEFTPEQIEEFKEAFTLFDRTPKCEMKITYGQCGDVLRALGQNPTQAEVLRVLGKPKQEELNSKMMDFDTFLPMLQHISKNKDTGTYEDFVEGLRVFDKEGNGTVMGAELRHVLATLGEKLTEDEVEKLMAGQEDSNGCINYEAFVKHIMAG
T1 sequence (Q3SZE5 whole entry partner): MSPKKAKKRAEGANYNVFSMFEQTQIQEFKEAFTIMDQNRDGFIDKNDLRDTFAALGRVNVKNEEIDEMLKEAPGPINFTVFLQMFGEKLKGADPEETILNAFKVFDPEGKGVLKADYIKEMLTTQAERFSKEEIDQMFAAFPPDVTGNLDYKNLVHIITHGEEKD
Source text: We used systems of increasing complexity ranging from the isolated cardiac myosin motor domains (Fig. 3a) to synthetic thick filaments formed from purified full-length bovine cardiac myosin (Fig. 3b) and bovine cardiac myofibrils as substrates in the chase assays (Fig. 3c). In contrast to the isolated myosin motors, synthetic thick filaments contain two myosin head domains per molecule connected via their coiled-coil tail.
Synthetic thick filaments were freshly prepared by diluting full-length bovine cardiac myosin stock into assay buffer (composition in mmol L^−1: 15 PIPES pH 7, 5 MgCl2, 1 DTT) and incubation on ice for 2 h. Bovine myosin S1 and synthetic thick filament concentrations were adjusted to 0.4 μmol L^−1 with assay buffer and 40 μL aliquoted into individual wells of a black 384-well plate (Greiner). Mant-ATP (JenaBioscience) was added to each well to a final concentration of 0.4 μmol L^−1 using an automated injector unit in a ClarioStar Plate Reader (BMG LabTech) and the system was allowed to age for 1 min. The chase phase was started by adding a final concentration of 2 mmol L^−1 ATP using a second automated injector unit. Fluorescence intensity from each well was constantly measured for 15 min every 1 sec at 25 °C with the following settings: excitation at 360 nm with a 20 nm bandwidth and emission at 450 nm with a 20 nm bandwidth. For experiments with cardiac myofibrils the concentration was adjusted to 1 mg m L^−1, and the mant-ATP and ATP concentrations were increased to 20 μmol L^−1 and 20 mmol L^−1, respectively.

bovine cardiac myosin S1 = bovine cardiac myosin S1 (Bos taurus, UniProt Q9BE39); assay: mant-ATP chase single nucleotide turnover, myosin S1; conditions: for Representative Traces (mant-ATP chase, normalised signal): representative trace, sheet Figure 3a;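 on all read-outs here: 0.4 µM S1 preloaded with equimolar mant-ATP, chased by 2 mM ATP, mant fluorescence (ex 360, em 450 nm) read each second over 15 min at 25 °C, biexponential fit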
Sequence of bovine cardiac myosin S1 (Q9BE39 85-778 limits assumed): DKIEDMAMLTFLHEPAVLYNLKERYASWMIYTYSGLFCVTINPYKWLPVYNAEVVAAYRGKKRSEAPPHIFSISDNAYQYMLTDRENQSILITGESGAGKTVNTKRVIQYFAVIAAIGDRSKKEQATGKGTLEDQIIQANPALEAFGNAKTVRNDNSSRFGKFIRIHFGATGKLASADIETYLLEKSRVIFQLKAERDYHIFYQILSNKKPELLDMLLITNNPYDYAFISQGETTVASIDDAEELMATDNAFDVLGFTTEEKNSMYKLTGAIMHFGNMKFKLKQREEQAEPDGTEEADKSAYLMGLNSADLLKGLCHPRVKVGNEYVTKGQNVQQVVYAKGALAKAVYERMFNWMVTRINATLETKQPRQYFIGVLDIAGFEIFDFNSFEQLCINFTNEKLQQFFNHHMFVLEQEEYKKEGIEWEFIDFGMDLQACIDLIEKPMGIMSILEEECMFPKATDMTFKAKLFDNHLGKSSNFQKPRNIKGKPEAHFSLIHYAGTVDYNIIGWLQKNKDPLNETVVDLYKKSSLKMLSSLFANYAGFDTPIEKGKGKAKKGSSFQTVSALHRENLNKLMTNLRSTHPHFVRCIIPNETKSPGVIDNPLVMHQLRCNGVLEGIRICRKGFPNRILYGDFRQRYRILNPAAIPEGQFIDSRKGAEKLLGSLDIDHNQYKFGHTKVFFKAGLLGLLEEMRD
Sequence of bovine cardiac myosin S1 (P85100 whole entry partner): as the sequence (P85100 whole entry partner) above
Source text: Chase of mant-ATP loaded cardiac myosin S1 with ATP leads to a decrease in the mant fluorescence intensity which is best described by a bi-exponential decay function with an initial fast phase followed by a second slower phase, corresponding to the so-called disordered (DRX) and super-relaxed state (SRX) of myosin, respectively.

[2] = Synthetic Myosin Filaments, individual replicates
[3] = Beta-cardiac myosin S1, individual replicates

CC(C)n1c(=O)cc(N[C@@H](C)c2ccccc2)[nH]c1=O [Mavacamten]
effect on the rate of the fast DRX phase [1]: no effect
Bar graph (Figure 3b, mant-ATP chase) ([1]; Figure 3b source data, individual replicate values): 77.58 and 71.76 and 78.3 and 63.78 and 62.87 and 75.77 and 68.24
Representative Traces (mant-ATP chase, fluorescence signal over time) ([1]; t = 796 s): 0.1167
Representative Traces (mant-ATP chase, fluorescence signal over time) ([1]; t = 797 s): 0.08985
Representative Traces (mant-ATP chase, fluorescence signal over time) ([1]; t = 798 s): 0.08985
kfast [1, 2]: 0.1528 s⁻¹ and 0.02969 s⁻¹ and 0.09681 s⁻¹ and 0.02631 s⁻¹ and 0.06313 s⁻¹ and 0.02802 s⁻¹
kslow [1, 2]: 0.001307 s⁻¹ and 0.001384 s⁻¹ and 0.002093 s⁻¹ and 0.003633 s⁻¹ and 0.005541 s⁻¹ and 0.004994 s⁻¹
slow phase [1, 2]: 71.76% and 78.3% and 63.78% and 62.87% and 75.77% and 68.24%
kslow ([1]; control 0.0046 ± 0.0007): 0.0033 ± 0.0007 s⁻¹
kfast ([1]; control […]): 0.0593 ± 0.0188 s⁻¹
effect on the rate of the fast DRX phase (bovine cardiac myosin S1): no effect
kslow (bovine cardiac myosin S1; 2 μmol L^-1 Mavacamten or 20 μmol L^-1 F10, control 0.0058 ± 0.0010): 0.0035 ± 0.0002 s⁻¹
kfast (bovine cardiac myosin S1; [3]): 0.009858 s⁻¹ and 0.01039 s⁻¹ and 0.07197 s⁻¹ and 0.03575 s⁻¹ and 0.01101 s⁻¹ and 0.01169 s⁻¹
kslow (bovine cardiac myosin S1; [3]): 0.00364 s⁻¹ and 0.002861 s⁻¹ and 0.004023 s⁻¹ and 0.004095 s⁻¹ and 0.003004 s⁻¹ and 0.003638 s⁻¹
slow phase (bovine cardiac myosin S1; [3]): 82.01% and 63.89% and 87.3% and 56.77% and 56.99% and 79.26%
Representative Traces, normalised fluorescence (bovine cardiac myosin S1; t 396 s): 0.2925
Representative Traces, normalised fluorescence (bovine cardiac myosin S1; t 397 s): 0.3426
Representative Traces, normalised fluorescence (bovine cardiac myosin S1; t 398 s): 0.3062
Representative Traces, normalised fluorescence (bovine cardiac myosin S1; t 399 s): 0.3254
Representative Traces, normalised fluorescence (bovine cardiac myosin S1; t 400 s): 0.3408
Representative Traces, normalised fluorescence (bovine cardiac myosin S1; t 401 s): 0.3177
Representative Traces, normalised fluorescence (bovine cardiac myosin S1; t 402 s): 0.2999
Representative Traces, normalised fluorescence (bovine cardiac myosin S1; t 403 s): 0.3192
Representative Traces, normalised fluorescence (bovine cardiac myosin S1; t 404 s): 0.3277
Representative Traces, normalised fluorescence (bovine cardiac myosin S1; t 405 s): 0.3461
Representative Traces, normalised fluorescence (bovine cardiac myosin S1; t 406 s): 0.3076
Representative Traces, normalised fluorescence (bovine cardiac myosin S1; t 407 s): 0.3064
Representative Traces, normalised fluorescence (bovine cardiac myosin S1; t 408 s): 0.3235
Representative Traces, normalised fluorescence (bovine cardiac myosin S1; t 409 s): 0.3324
Representative Traces, normalised fluorescence (bovine cardiac myosin S1; t 411 s): 0.3126
Representative Traces, normalised fluorescence (bovine cardiac myosin S1; t 412 s): 0.2865
Representative Traces, normalised fluorescence (bovine cardiac myosin S1; t 413 s): 0.2993
Representative Traces, normalised fluorescence (bovine cardiac myosin S1; t 414 s): 0.3256
Representative Traces, normalised fluorescence (bovine cardiac myosin S1; t 415 s): 0.2791
Representative Traces, normalised fluorescence (bovine cardiac myosin S1; t 416 s): 0.3071
Representative Traces, normalised fluorescence (bovine cardiac myosin S1; t 417 s): 0.3285
Representative Traces, normalised fluorescence (bovine cardiac myosin S1; t 418 s): 0.3567
Representative Traces, normalised fluorescence (bovine cardiac myosin S1; t 419 s): 0.2951
Representative Traces, normalised fluorescence (bovine cardiac myosin S1; t 420 s): 0.2958
Representative Traces, normalised fluorescence (bovine cardiac myosin S1; t 421 s): 0.2771
Representative Traces, normalised fluorescence (bovine cardiac myosin S1; t 422 s): 0.3283
Representative Traces, normalised fluorescence (bovine cardiac myosin S1; t 423 s): 0.3329
Representative Traces, normalised fluorescence (bovine cardiac myosin S1; t 424 s): 0.3402
Representative Traces, normalised fluorescence (bovine cardiac myosin S1; t 425 s): 0.3675
Representative Traces, normalised fluorescence (bovine cardiac myosin S1; t 426 s): 0.3241
Representative Traces, normalised fluorescence (bovine cardiac myosin S1; t 427 s): 0.3018
Representative Traces, normalised fluorescence (bovine cardiac myosin S1; t 429 s): 0.3105
Representative Traces, normalised fluorescence (bovine cardiac myosin S1; t 430 s): 0.2835
Representative Traces, normalised fluorescence (bovine cardiac myosin S1; t 431 s): 0.3652
Representative Traces, normalised fluorescence (bovine cardiac myosin S1; t 432 s): 0.276
Representative Traces, normalised fluorescence (bovine cardiac myosin S1; t 433 s): 0.3282
Representative Traces, normalised fluorescence (bovine cardiac myosin S1; t 434 s): 0.3046
Representative Traces, normalised fluorescence (bovine cardiac myosin S1; t 436 s): 0.327
Representative Traces, normalised fluorescence (bovine cardiac myosin S1; t 438 s): 0.2936
Representative Traces, normalised fluorescence (bovine cardiac myosin S1; t 439 s): 0.2402
Representative Traces, normalised fluorescence (bovine cardiac myosin S1; t 440 s): 0.312
Representative Traces, normalised fluorescence (bovine cardiac myosin S1; t 442 s): 0.3011
Representative Traces, normalised fluorescence (bovine cardiac myosin S1; t 443 s): 0.3298
Representative Traces, normalised fluorescence (bovine cardiac myosin S1; t 444 s): 0.251
Representative Traces, normalised fluorescence (bovine cardiac myosin S1; t 445 s): 0.2991
Representative Traces, normalised fluorescence (bovine cardiac myosin S1; t 448 s): 0.3473
Representative Traces, normalised fluorescence (bovine cardiac myosin S1; t 449 s): 0.3057
Representative Traces, normalised fluorescence (bovine cardiac myosin S1; t 450 s): 0.2886
Representative Traces, normalised fluorescence (bovine cardiac myosin S1; t 451 s): 0.2859
Representative Traces, normalised fluorescence (bovine cardiac myosin S1; t 452 s): 0.29
Representative Traces, normalised fluorescence (bovine cardiac myosin S1; t 453 s): 0.2756
Representative Traces, normalised fluorescence (bovine cardiac myosin S1; t 454 s): 0.2575
Representative Traces, normalised fluorescence (bovine cardiac myosin S1; t 455 s): 0.3029
Representative Traces, normalised fluorescence (bovine cardiac myosin S1; t 457 s): 0.3415
Representative Traces, normalised fluorescence (bovine cardiac myosin S1; t 458 s): 0.2853
Representative Traces, normalised fluorescence (bovine cardiac myosin S1; t 459 s): 0.3237
Representative Traces, normalised fluorescence (bovine cardiac myosin S1; t 460 s): 0.3029
Representative Traces, normalised fluorescence (bovine cardiac myosin S1; t 461 s): 0.3217
Representative Traces, normalised fluorescence (bovine cardiac myosin S1; t 462 s): 0.3036
Representative Traces, normalised fluorescence (bovine cardiac myosin S1; t 463 s): 0.347
Representative Traces, normalised fluorescence (bovine cardiac myosin S1; t 464 s): 0.2897
Representative Traces, normalised fluorescence (bovine cardiac myosin S1; t 465 s): 0.2531
Representative Traces, normalised fluorescence (bovine cardiac myosin S1; t 466 s): 0.2878
Representative Traces, normalised fluorescence (bovine cardiac myosin S1; t 467 s): 0.2939
Representative Traces, normalised fluorescence (bovine cardiac myosin S1; t 468 s): 0.2524
Representative Traces, normalised fluorescence (bovine cardiac myosin S1; t 469 s): 0.272
Representative Traces, normalised fluorescence (bovine cardiac myosin S1; t 470 s): 0.2865
Representative Traces, normalised fluorescence (bovine cardiac myosin S1; t 471 s): 0.2593
Representative Traces, normalised fluorescence (bovine cardiac myosin S1; t 472 s): 0.2417
Representative Traces, normalised fluorescence (bovine cardiac myosin S1; t 473 s): 0.3026
Representative Traces, normalised fluorescence (bovine cardiac myosin S1; t 474 s): 0.305
Representative Traces, normalised fluorescence (bovine cardiac myosin S1; t 475 s): 0.2893
Representative Traces, normalised fluorescence (bovine cardiac myosin S1; t 476 s): 0.2207
Representative Traces, normalised fluorescence (bovine cardiac myosin S1; t 477 s): 0.2579
Representative Traces, normalised fluorescence (bovine cardiac myosin S1; t 479 s): 0.2507
Representative Traces, normalised fluorescence (bovine cardiac myosin S1; t 481 s): 0.3039
Representative Traces, normalised fluorescence (bovine cardiac myosin S1; t 482 s): 0.2976
Representative Traces, normalised fluorescence (bovine cardiac myosin S1; t 483 s): 0.3557
Representative Traces, normalised fluorescence (bovine cardiac myosin S1; t 484 s): 0.2911
Representative Traces, normalised fluorescence (bovine cardiac myosin S1; t 485 s): 0.3282
Representative Traces, normalised fluorescence (bovine cardiac myosin S1; t 486 s): 0.3063
Representative Traces, normalised fluorescence (bovine cardiac myosin S1; t 487 s): 0.301
Representative Traces, normalised fluorescence (bovine cardiac myosin S1; t 489 s): 0.3448
Representative Traces, normalised fluorescence (bovine cardiac myosin S1; t 490 s): 0.2903
Representative Traces, normalised fluorescence (bovine cardiac myosin S1; t 491 s): 0.2724
Representative Traces, normalised fluorescence (bovine cardiac myosin S1; t 492 s): 0.2681
Representative Traces, normalised fluorescence (bovine cardiac myosin S1; t 493 s): 0.2418
Representative Traces, normalised fluorescence (bovine cardiac myosin S1; t 494 s): 0.2422
Representative Traces, normalised fluorescence (bovine cardiac myosin S1; t 495 s): 0.2809
Representative Traces, normalised fluorescence (bovine cardiac myosin S1; t 496 s): 0.2322
Representative Traces, normalised fluorescence (bovine cardiac myosin S1; t 498 s): 0.212
Representative Traces, normalised fluorescence (bovine cardiac myosin S1; t 499 s): 0.2038
Representative Traces, normalised fluorescence (bovine cardiac myosin S1; t 500 s): 0.275
Representative Traces, normalised fluorescence (bovine cardiac myosin S1; t 501 s): 0.2793
Representative Traces, normalised fluorescence (bovine cardiac myosin S1; t 502 s): 0.2398
Representative Traces, normalised fluorescence (bovine cardiac myosin S1; t 503 s): 0.2758
Representative Traces, normalised fluorescence (bovine cardiac myosin S1; t 504 s): 0.2833
Representative Traces, normalised fluorescence (bovine cardiac myosin S1; t 505 s): 0.2324
Representative Traces, normalised fluorescence (bovine cardiac myosin S1; t 506 s): 0.2749
Representative Traces, normalised fluorescence (bovine cardiac myosin S1; t 507 s): 0.3022
Representative Traces (mant-ATP chase, normalised signal) (bovine cardiac myosin S1; t = 796 s): 0.1415
Representative Traces (mant-ATP chase, normalised signal) (bovine cardiac myosin S1; t = 797 s): 0.08266
